Reference: patent US7700786B2, “Pyrazole derivative, intermediate therefor, processes for producing these, and herbicide containing these as active ingredient” (Sagami Chemical Research Center, priority 2001, dated 2010)
Values belong to the molecule of their own block, whether it stands above or below them.

Key:
Scirpus juncoides = assay: Herbicidal efficacy test by pre-emergence treatment under submergence condition; assay type: in vivo; details: 15th day after treatment, ratings of 1 to 5
Source text: (§1) A 1/10,000-are pot was filled with paddy field soil, and, after plowing, seeds of Echinochloa oryzicola, Cyperus difformis, Monochoria vaginalis, Scirpus juncoides, Eleocharis acicularis and other annual broadleaf weeds such as Lindernia procumbens, Rotala indica and Elatine triandra were sown. Rice (oryza sativa) seedlings (cultiver “Koshihikari”) at a 2.5-leaf stage were transplanted and kept under a submergence condition. After one day, the wettable powder or emulsifiable concentrate of the compound of the present invention, prepared according to Preparation Example, was diluted and dropped on a water surface at a predetermined dose.

Monochoria vaginalis = assay: as above; assay type: in vivo; details: 15th day after treatment, ratings of 1 to 5; note: key: 1 shows no influence; 5 shows complete die
Source text: as §1

Echinochloa oryzicola = assay: as above; assay type: in vivo; details: 15th day after treatment, ratings of 1 to 5
Source text: as §1

[1] = tested on: annual broadleaf weeds such as Lindernia procumbens, Rotala indica and Elatine triandra; assay: as above; assay type: in vivo; details: 15th day after treatment, ratings of 1 to 5
Source text: as §1

Cyperus difformis = assay: as above; assay type: in vivo; details: 15th day after treatment, ratings of 1 to 5; note: key: 1 shows no influence; 5 shows complete die
Source text: as §1

Eleocharis acicularis = assay: as above; assay type: in vivo; details: 15th day after treatment, ratings of 1 to 5; note: key: 1 shows no influence; 5 shows complete die
Source text: as §1

melting point: 98 to 99 °C
SMILES: CCNC(=O)n1nc(Oc2c(Cl)cc(C(F)(F)F)cc2[N+](=O)[O-])cc1C [Example 126, N-ethyl-3-(2-chloro-6-nitro-4-trifluoromethylphenyloxy)-5-methylpyrazole-1-carboxamide]

melting point: 86 to 89 °C
SMILES: CCNC(=O)n1nc(Oc2c(Cl)cc(C(F)(F)F)cc2Cl)cc1CC [Example 163, N-ethyl-3-(2,6-dichloro-4-trifluoromethylphenyloxy)-5-ethylpyrazole-1-carboxamide]

melting point: 88 to 90 °C
SMILES: CCNC(=O)n1nc(Oc2c(Cl)cc(C(F)(F)F)cc2Cl)cc1C(=O)OC [Example 175, methyl 3-(2,6-dichloro-4-trifluoromethylphenyloxy)-1 (N-ethylcarbamoyl)pyrazole-5-carboxylate]

melting point: 89 to 90 °C
SMILES: COCNC(=S)n1nc(Oc2ccc(C#N)cc2C(F)(F)F)cc1C [Example 177, N-methoxymethyl-3-(4-cyano-2-trifluoromethylphenyloxy)-5-methylpyrazole-1-carbothioamide]

melting point: 152 to 154 °C
SMILES: Cc1cc(Oc2c(Cl)cc(C(F)(F)F)cc2Cl)nn1C(N)=O [Example 223, 3-(2,6-dichloro-4-trifluoromethylphenyloxy)-5-methylpyrazole-1-carboxamide]

melting point: 111 to 113 °C
SMILES: Cc1cc(Oc2c(Cl)cc(C(F)(F)F)cc2Cl)nn1C(=O)NCC=O [Example 229, N-formylmethyl-3-(2,6-dichloro-4-trifluoromethylphenyloxy)-5-methylpyrazole-1-carboxamide]

melting point: 118 to 120 °C
SMILES: CC(C)N(C(=O)n1nc(Oc2ccc(C(F)(F)F)cc2[N+](=O)[O-])cc1C(F)(F)F)C(C)C [Example 241, N,N-Diisopropyl-3-(2-nitro-4-trifluoromethylphenyloxy)-5-trifluoromethylpyrazole-1-carboxamide]

melting point: 93 to 94 °C
SMILES: CNC(=O)n1nc(Oc2ccc(C(F)(F)F)cc2N)cc1C [Example 242, N-methyl-3-(2-amino-4-trifluoromethylphenyloxy)-5-methylpyrazole-1-carboxamide]

melting point: 89 to 91 °C
SMILES: Cc1c(Cl)c(Oc2ccc(C(F)(F)F)cc2[N+](=O)[O-])nn1C(=O)NC(C)C [Example 243, N-isopropyl-4-chloro-5-methyl-3-(2-nitro-4-trifluoromethylphenyloxy)pyrazole-1-carboxamide]

melting point: 157 to 158 °C
SMILES: CNC(=O)n1nc(Oc2ccc([N+](=O)[O-])cc2C(F)(F)F)c(Cl)c1C [Example 245, N-methyl-4-chloro-5-methyl-3-(4-nitro-2-trifluoromethylphenyloxy)pyrazole-1-carboxamide]

melting point: 86 to 88 °C
SMILES: CCCCCCNC(=O)n1nc(Oc2c(Cl)cc(C(F)(F)F)cc2Cl)c(Cl)c1C [Example 246, N-hexyl-4-chloro-3-(2,6-dichloro-4-trifluoromethylphenyloxy)-5-methylpyrazole-1-carboxamide]

melting point: 109 to 111 °C
SMILES: Cc1c(Cl)c(Oc2c(Cl)cc(C(F)(F)F)cc2Cl)nn1C(=O)NC(C)C [Example 249, N-isopropyl-4-chloro-3-(2,6-dichloro-4-trifluoromethylphenyloxy)-5-methylpyrazole-1-carboxamide]

Further lines, the molecule ahead of its results:

SMILES: Cc1cc(Oc2c(Cl)cc(C(F)(F)F)cc2Cl)nn1C(=O)NCCCl [Compound 3-143]
Herbicidal efficacy Sj (Scirpus juncoides; dose 0.5 kg/ha): 4
Herbicidal efficacy Sj (Scirpus juncoides; dose 1 kg/ha): 5
Herbicidal efficacy Mv (Monochoria vaginalis; dose 0.5 kg/ha): 5
Herbicidal efficacy Mv (Monochoria vaginalis; dose 1 kg/ha): 5
Herbicidal efficacy Eo (Echinochloa oryzicola; dose 0.5 kg/ha): 5
Herbicidal efficacy Eo (Echinochloa oryzicola; dose 1 kg/ha): 5
Herbicidal efficacy Blw ([1]; dose 0.5 kg/ha): 5
Herbicidal efficacy Blw ([1]; dose 1 kg/ha): 5
Herbicidal efficacy Cd (Cyperus difformis; dose 0.5 kg/ha): 5
Herbicidal efficacy Cd (Cyperus difformis; dose 1 kg/ha): 5
Herbicidal efficacy Ea (Eleocharis acicularis; dose 0.5 kg/ha): 5
Herbicidal efficacy Ea (Eleocharis acicularis; dose 1 kg/ha): 5

SMILES: CNC(=O)n1nc(Oc2ncc(C(F)(F)F)cc2Cl)cc1C [Compound 4-6, N-methyl-3-(3-chloro-5-trifluoromethylpyridin-2-yloxy)-5-methylpyrazole-1-carboxamide]
Herbicidal efficacy Sj (Scirpus juncoides; dose 0.5 kg/ha): 4.6
Herbicidal efficacy Sj (Scirpus juncoides; dose 1 kg/ha): 5
Herbicidal efficacy Mv (Monochoria vaginalis; dose 0.5 kg/ha): 5
Herbicidal efficacy Mv (Monochoria vaginalis; dose 1 kg/ha): 5
Herbicidal efficacy Eo (Echinochloa oryzicola; dose 0.5 kg/ha): 4.8
Herbicidal efficacy Eo (Echinochloa oryzicola; dose 1 kg/ha): 5
Herbicidal efficacy Blw ([1]; dose 0.5 kg/ha): 5
Herbicidal efficacy Blw ([1]; dose 1 kg/ha): 5
Herbicidal efficacy Cd (Cyperus difformis; dose 0.5 kg/ha): 5
Herbicidal efficacy Cd (Cyperus difformis; dose 1 kg/ha): 5
Herbicidal efficacy Ea (Eleocharis acicularis; dose 0.5 kg/ha): 5
Herbicidal efficacy Ea (Eleocharis acicularis; dose 1 kg/ha): 5

SMILES: CCNC(=O)n1nc(Oc2ncc(C(F)(F)F)cc2Cl)cc1C [Compound 4-16, N-ethyl-3-(3-chloro-5-trifluoromethylpyridin-2-yloxy)-5-methylpyrazole-1-carboxamide]
Herbicidal efficacy Sj (Scirpus juncoides; dose 0.5 kg/ha): 4.8
Herbicidal efficacy Sj (Scirpus juncoides; dose 1 kg/ha): 5
Herbicidal efficacy Mv (Monochoria vaginalis; dose 0.5 kg/ha): 5
Herbicidal efficacy Mv (Monochoria vaginalis; dose 1 kg/ha): 5
Herbicidal efficacy Eo (Echinochloa oryzicola; dose 0.5 kg/ha): 5
Herbicidal efficacy Eo (Echinochloa oryzicola; dose 1 kg/ha): 5
Herbicidal efficacy Blw ([1]; dose 0.5 kg/ha): 5
Herbicidal efficacy Blw ([1]; dose 1 kg/ha): 5
Herbicidal efficacy Cd (Cyperus difformis; dose 0.5 kg/ha): 5
Herbicidal efficacy Cd (Cyperus difformis; dose 1 kg/ha): 5
Herbicidal efficacy Ea (Eleocharis acicularis; dose 0.5 kg/ha): 5
Herbicidal efficacy Ea (Eleocharis acicularis; dose 1 kg/ha): 5

SMILES: CCNC(=S)n1nc(Oc2ncc(C(F)(F)F)cc2Cl)cc1C [Compound 4-17, N-ethyl-3-(3-chloro-5-trifluoromethylpyridin-2-yloxy)-5-methylpyrazole-1-carbothioamide]
Herbicidal efficacy Sj (Scirpus juncoides; dose 0.5 kg/ha): 4.5
Herbicidal efficacy Sj (Scirpus juncoides; dose 1 kg/ha): 4.8
Herbicidal efficacy Mv (Monochoria vaginalis; dose 0.5 kg/ha): 5
Herbicidal efficacy Mv (Monochoria vaginalis; dose 1 kg/ha): 5
Herbicidal efficacy Eo (Echinochloa oryzicola; dose 0.5 kg/ha): 5
Herbicidal efficacy Eo (Echinochloa oryzicola; dose 1 kg/ha): 5
Herbicidal efficacy Blw ([1]; dose 0.5 kg/ha): 4.8
Herbicidal efficacy Blw ([1]; dose 1 kg/ha): 5
Herbicidal efficacy Cd (Cyperus difformis; dose 0.5 kg/ha): 5
Herbicidal efficacy Cd (Cyperus difformis; dose 1 kg/ha): 5
Herbicidal efficacy Ea (Eleocharis acicularis; dose 0.5 kg/ha): 5
Herbicidal efficacy Ea (Eleocharis acicularis; dose 1 kg/ha): 5

SMILES: CCCNC(=O)n1nc(Oc2ncc(C(F)(F)F)cc2Cl)cc1C [Compound 4-23, N-propyl-3-(3-chloro-5-trifluoromethylpyridin-2-yloxy)-5-methylpyrazole-1-carboxamide]
Herbicidal efficacy Sj (Scirpus juncoides; dose 0.5 kg/ha): 4.9
Herbicidal efficacy Sj (Scirpus juncoides; dose 1 kg/ha): 5
Herbicidal efficacy Mv (Monochoria vaginalis; dose 0.5 kg/ha): 5
Herbicidal efficacy Mv (Monochoria vaginalis; dose 1 kg/ha): 5
Herbicidal efficacy Eo (Echinochloa oryzicola; dose 0.5 kg/ha): 5
Herbicidal efficacy Eo (Echinochloa oryzicola; dose 1 kg/ha): 5
Herbicidal efficacy Blw ([1]; dose 0.5 kg/ha): 4.8
Herbicidal efficacy Blw ([1]; dose 1 kg/ha): 5
Herbicidal efficacy Cd (Cyperus difformis; dose 0.5 kg/ha): 5
Herbicidal efficacy Cd (Cyperus difformis; dose 1 kg/ha): 5
Herbicidal efficacy Ea (Eleocharis acicularis; dose 0.5 kg/ha): 5
Herbicidal efficacy Ea (Eleocharis acicularis; dose 1 kg/ha): 5

SMILES: CCNC(=O)n1nc(Oc2c(Cl)cc(C(F)(F)F)cc2Cl)cc1-c1ccc(Cl)cc1 [Example 176, N-ethyl-5-(4-chlorophenyl)-3-(2,6-dichloro-4-trifluoromethylphenyloxy)pyrazole-1-carboxamide]
melting point: 88 to 89 °C

SMILES: COCNC(=S)n1nc(Oc2c(Cl)cc(C(F)(F)F)cc2Cl)cc1C [Example 178, N-methoxymethyl-3-(2,6-dichloro-4-trifluoromethylphenyloxy)-5-methylpyrazole-1-carbothioamide]
melting point: 95 to 96 °C

SMILES: Cc1cc(Oc2cccc(C(F)(F)F)c2)nn1C(=O)NCC1CCCO1 (stereo not shown) [Example 199, N-tetrahydrofurfuryl-5-methyl-3-(3-trifluoromethylphenyloxy)pyrazole-1-carboxamide]
melting point: 101 to 102 °C

SMILES: CCCNC(=O)n1nc(Oc2c(Cl)cc(C(F)(F)F)cc2Cl)cc1C(Cl)(Cl)Cl [Example 250, N-propyl-3-(2,6-dichloro-4-trifluoromethylphenyloxy)-5-trichloromethylpyrazole-1-carboxamide]
melting point: 89 to 91 °C
